Consider 37 compounds from patent US20240425486A1, “FUSED BICYCLIC SUBSTITUTED N-(1H-INDOL-7-YL)BENZENESULFONAMIDES AND USES THEREOF” (Triana Biomedicines, Inc., priority 2021, published 2024).

In general, EC50 refers to the concentration needed to bring the measured effect to its halfway point. Read a low EC50 as a more potent agent. A word on the IC50: it is the concentration that inhibits the measured activity by half.

One test deals with DCAF15/RBM39 (Homo sapiens (Human), UniProt Q14498+Q66K64). Briefly: AlphaLISA compound-induced DCAF15-RBM39 ternary complex formation. The test is classed as binding. Particulars: His-tagged DCAF15 complex and biotin-carrying RBM39. As to the method: Example 7: Quantitative Evaluation of Compound-Induced Ternary Complex Formation Using Amplified Luminescent Proximity Homogeneous Assay
Sequence of DCAF15/RBM39 (Q66K64 whole entry, species assumed): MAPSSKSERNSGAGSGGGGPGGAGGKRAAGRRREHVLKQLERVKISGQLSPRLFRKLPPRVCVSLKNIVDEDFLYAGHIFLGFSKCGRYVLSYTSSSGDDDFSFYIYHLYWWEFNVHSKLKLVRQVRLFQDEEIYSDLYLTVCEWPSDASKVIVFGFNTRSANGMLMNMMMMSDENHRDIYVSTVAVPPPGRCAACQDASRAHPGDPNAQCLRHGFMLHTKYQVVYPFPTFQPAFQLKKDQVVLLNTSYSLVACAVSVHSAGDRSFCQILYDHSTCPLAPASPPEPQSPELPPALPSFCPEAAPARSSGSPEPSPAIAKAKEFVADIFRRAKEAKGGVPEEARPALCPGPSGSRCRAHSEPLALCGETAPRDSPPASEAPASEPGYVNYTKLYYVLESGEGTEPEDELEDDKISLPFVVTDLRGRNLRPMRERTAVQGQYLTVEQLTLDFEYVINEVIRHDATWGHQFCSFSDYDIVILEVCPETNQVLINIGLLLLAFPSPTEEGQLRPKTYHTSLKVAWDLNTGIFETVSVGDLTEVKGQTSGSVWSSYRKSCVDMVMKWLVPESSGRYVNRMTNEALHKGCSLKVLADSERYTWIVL
Sequence of DCAF15/RBM39 (Q14498 whole entry, species assumed): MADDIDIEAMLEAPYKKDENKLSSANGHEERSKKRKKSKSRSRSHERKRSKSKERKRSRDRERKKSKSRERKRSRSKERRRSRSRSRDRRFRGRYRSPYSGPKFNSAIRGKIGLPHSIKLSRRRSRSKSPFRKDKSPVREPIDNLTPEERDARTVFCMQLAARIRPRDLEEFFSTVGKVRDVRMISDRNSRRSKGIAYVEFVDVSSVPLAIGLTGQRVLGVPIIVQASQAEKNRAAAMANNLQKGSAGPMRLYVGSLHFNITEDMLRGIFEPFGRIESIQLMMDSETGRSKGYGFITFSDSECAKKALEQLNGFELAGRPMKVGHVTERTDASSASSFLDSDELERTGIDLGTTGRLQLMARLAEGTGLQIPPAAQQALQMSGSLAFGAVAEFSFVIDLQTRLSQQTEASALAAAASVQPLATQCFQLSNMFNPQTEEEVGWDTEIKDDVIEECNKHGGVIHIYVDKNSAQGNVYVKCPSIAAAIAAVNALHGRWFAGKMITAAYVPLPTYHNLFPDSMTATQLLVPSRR
Sequence of DCAF15/RBM39 (Q16531 whole entry partner, species assumed): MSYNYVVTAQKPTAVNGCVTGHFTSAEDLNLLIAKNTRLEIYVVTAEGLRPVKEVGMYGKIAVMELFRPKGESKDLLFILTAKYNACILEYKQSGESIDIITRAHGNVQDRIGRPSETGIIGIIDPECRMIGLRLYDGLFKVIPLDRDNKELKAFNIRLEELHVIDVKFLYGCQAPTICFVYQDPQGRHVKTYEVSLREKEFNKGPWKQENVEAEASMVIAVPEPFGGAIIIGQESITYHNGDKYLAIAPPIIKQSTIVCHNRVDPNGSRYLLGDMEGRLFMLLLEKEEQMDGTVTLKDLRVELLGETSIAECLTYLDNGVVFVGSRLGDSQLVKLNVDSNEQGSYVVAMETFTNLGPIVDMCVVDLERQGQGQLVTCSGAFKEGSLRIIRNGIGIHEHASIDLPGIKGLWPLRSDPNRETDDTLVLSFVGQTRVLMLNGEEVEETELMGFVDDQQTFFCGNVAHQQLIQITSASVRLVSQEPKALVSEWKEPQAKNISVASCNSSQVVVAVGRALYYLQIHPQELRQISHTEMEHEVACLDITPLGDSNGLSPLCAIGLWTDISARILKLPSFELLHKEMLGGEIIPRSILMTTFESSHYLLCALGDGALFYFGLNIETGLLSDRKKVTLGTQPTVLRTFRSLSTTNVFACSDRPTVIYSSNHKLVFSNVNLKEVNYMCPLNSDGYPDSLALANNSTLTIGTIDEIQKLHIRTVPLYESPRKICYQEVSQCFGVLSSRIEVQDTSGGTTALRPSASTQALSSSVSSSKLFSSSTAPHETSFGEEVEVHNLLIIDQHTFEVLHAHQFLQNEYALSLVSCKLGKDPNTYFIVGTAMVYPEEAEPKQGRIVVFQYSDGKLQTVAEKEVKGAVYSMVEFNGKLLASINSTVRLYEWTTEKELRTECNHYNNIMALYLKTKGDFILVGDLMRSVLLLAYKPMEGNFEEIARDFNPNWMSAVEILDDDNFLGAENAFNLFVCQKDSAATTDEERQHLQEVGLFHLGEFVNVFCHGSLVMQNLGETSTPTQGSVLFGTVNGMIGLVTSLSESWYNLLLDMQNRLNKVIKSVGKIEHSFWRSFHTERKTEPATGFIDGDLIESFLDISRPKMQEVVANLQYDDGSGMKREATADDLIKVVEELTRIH
Compound-induced DCAF15-RBM39 ternary complex formation was monitored using AlphaLISA® assays (Perkin Elmer, Waltham, MA). Test compounds were first collected in a 384-well microplate (cat. #781280, Grenier Bio-One, Monroe, NC) as 2 mM stocks in 100% dimethyl sulfoxide (DMSO). These stocks were then serially diluted in DMSO by 3-fold into a new plate (cat. #781280, Grenier Bio-One, Monroe, NC) using a Mosquito HTS dispenser (Mosquito® HTS, SPT Labtech, Boston, MA). 0.2 μL of these diluted stocks were then dispensed into a 384-well Optiplate (cat. #6007290, Perkin Elmer, Waltham, MA) in duplicate wells, to assemble the final assay plate consisting of duplicated dose ranges. Separately, a protein mixture consisting of His-tagged DCAF15 complex and biotin-carrying RBM39, each at 408 nM (2.04×), was prepared in 50 mM HEPES, pH 7.5, 100 mM NaCl, 2 mM MgCl2, 0.1% BSA, 2 mM TCEP, 0.05% Tween-20 (dilution buffer). 9.8 μL of this protein mixture was then mixed with the compounds in the assay plate and incubated for one hour at room temperature. Reaction mixtures with no compounds added were included as negative controls, while a His-tagged and biotinylated GST protein was included to track general assay performance. Nickel Chelate AlphaLISA Acceptor beads (cat. #AL108M, Perkin Elmer, MA) and AlphaScreen Streptavidin Donor beads (cat. #6760002, Perkin Elmer, Waltham, MA) were prepared separately in the dilution buffer as 4× stocks (80 ug/ml). The beads were then added to the assay plate sequentially with incubation at room temperature for 1-2 hours after each addition. Signals were recorded using EnVision 2104 Multilabel Plate Reader (Perkin Elmer, Waltham, MA) and titration curves were generated in GraphPad Prism (7.00, GraphPad, La Jolla, CA).

The next test deals with DCAF15 (Homo sapiens (Human), UniProt Q66K64). As to the kind of experiment: HTRF competition assay, binary interaction with DCAF15. The following applies: competition with Alexa Fluor 647 tracer. The test is classed as binding. How it is done:
Example 8: Measurement of Binary Interaction Between Compounds and DCAF15 Using Homogeneous Time Resolved Fluorescence (HTRF)
DCAF15 interactions with test compounds were monitored using HTRF competition assays (Cisbio, Bedford, MA). Test compounds were first collected in a 384-well microplate (cat. #781280, Grenier Bio-One, Monroe, NC) as 10 mM stocks in 100% dimethyl sulfoxide (DMSO). A second stock plate (cat. #781280, Grenier Bio-One, Monroe, NC) was prepared through 3-fold serial dilution in DMSO of the afore-mentioned stocks using a Mosquito HTS dispenser (mosquito@ HTS, SPT Labtech, Boston, MA). 0.2 μL of these diluted stocks were then dispensed into a 384-well Optiplate (cat. #6007290, Perkin Elmer, Waltham, MA) in duplicate wells, to assemble the assay plate. The tracer molecule containing an Alexa Fluor 647 probe was prepared in 25 mM HEPES pH 7.5, 100 mM NaCl, 0.1 mg/ml BSA, 0.005% Tween 20, 0.5 mM TCEP (dilution buffer) to 612 nM (2.04×). Separately, His-tagged DCAF15 complex was prepared at 32 nM (4×) in the dilution buffer, and mAb Anti-6His-Eu cryptate Gold (cat. #61H12KLA, Cisbio, Bedford, MA) at 4× dilution in the detection buffer (cat. #61DB9RDF, Cisbio, Bedford, MA). These two solutions were mixed and incubated for 15 min at room temperature. 9.8 μL of the tracer solution and 10 μL of the DCAF15/mAb Anti-6His-Eu cryptate Gold mixture were added sequentially to each well in the assay plate. Reaction mixtures with no DCAF15 added were included as positive controls. The final mixture was incubated for an hour at room temperature and spun down briefly before data collection at 615 nm and 666 nm using EnVision 2104 Multilabel Plate Reader (Perkin Elmer, Bedford, MA). Binding was estimated based on ratiometric analysis and titration curves were generated in GraphPad Prism (7.00, GraphPad, La Jolla, CA).
For orientation: TR-FRET usually uses a lanthanide donor and a delayed reading to cut background.

Sequence of DCAF15 (Q66K64 whole entry): as the sequence (Q66K64 whole entry, species assumed) above
Sequence of DCAF15 (Q16531 whole entry partner): as the sequence (Q16531 whole entry partner, species assumed) above

Regarding `Cn1cc(S(=O)(=O)Nc2ccc(Cl)c3c(Cl)c[nH]c23)c2ccccc21` [Compound 2], the EC50 at DCAF15/RBM39 lay in the range of 1 to 10 µM.

For `O=S(=O)(Nc1ccc(Cl)c2c(Cl)c[nH]c12)c1cc2cc(F)ccc2s1` [Compound 5], the EC50 on DCAF15/RBM39 fell in the range of 1 to 10 µM.

`O=C1CCc2ccc(S(=O)(=O)Nc3ccc(Cl)c4c(Cl)c[nH]c34)cc21` [Compound 7] had an EC50 at DCAF15/RBM39 of no more than 1 µM. Besides, on DCAF15, the IC50 lay within 1 to 10 µM.

Consider `CC(=O)N[C@H]1Cc2ccc(S(=O)(=O)Nc3ccc(Cl)c4c(Cl)c[nH]c34)cc2C1` [Compound 8], for which, at DCAF15/RBM39, the EC50 was no more than 1 µM. The compound also had an IC50 on DCAF15 of 1 to 10 µM.

In turn, `CC1(C)Cc2cc(S(=O)(=O)Nc3ccc(Cl)c4c(Cl)c[nH]c34)ccc2O1` [Compound 9] showed an EC50 at DCAF15/RBM39 of 1 to 10 µM. The compound further gave an IC50 at DCAF15 greater than 100 µM.

Regarding `O=C1OCc2ccc(S(=O)(=O)Nc3ccc(Cl)c4c(Cl)c[nH]c34)cc21` [Compound 10], the EC50 on DCAF15/RBM39 was no more than 1 µM. Also, the IC50 on DCAF15 fell in the range of 1 to 10 µM.

The compound `O=S(=O)(Nc1ccc(Cl)c2c(Cl)c[nH]c12)c1ccc2occc2c1` [Compound 11] registered an EC50 at DCAF15/RBM39 of no more than 1 µM. Moreover, the IC50 on DCAF15 lay within 1 to 10 µM.

On to `CC(=O)N1CCc2cc(S(=O)(=O)Nc3ccc(Cl)c4c(Cl)c[nH]c34)ccc21` [Compound 12], for which, at DCAF15/RBM39, the EC50 is 1 to 10 µM. For the same compound, the IC50 at DCAF15 fell in the range of 1 to 10 µM.

Regarding `O=C1Nc2ccc(S(=O)(=O)Nc3ccc(Cl)c4c(Cl)c[nH]c34)cc2C1=O` [Compound 14], the EC50 at DCAF15/RBM39 was 1 to 10 µM. Moreover, the IC50 on DCAF15 is 1 to 10 µM.

`CC(=O)N1Cc2ccc(S(=O)(=O)Nc3ccc(Cl)c4c(Cl)c[nH]c34)cc2C1` [Compound 15] returned an EC50 on DCAF15/RBM39 of 1 to 10 µM. Also, at DCAF15, the IC50 was 1 to 10 µM.

For `CN1C(=O)c2ccc(S(=O)(=O)Nc3ccc(Cl)c4c(Cl)c[nH]c34)cc2C1=O` [Compound 16], at DCAF15/RBM39, the EC50 lay within 1 to 10 µM. In addition, at DCAF15, the IC50 was in the range of 1 to 10 µM.

For the compound `O=S(=O)(Nc1ccc(Cl)c2c(Cl)c[nH]c12)c1ccc2c(c1)OC(F)(F)O2` [Compound 18], the EC50 at DCAF15/RBM39 is no more than 1 µM. The same compound came in with an IC50 on DCAF15 of 1 to 10 µM.

In turn, `Cn1c(=O)n(C)c2cc(S(=O)(=O)Nc3ccc(Cl)c4c(Cl)c[nH]c34)ccc21` [Compound 19] yielded a concentration for a half-maximal effect (EC50) at DCAF15/RBM39 of 1 to 10 µM. The same compound returned an IC50 on DCAF15 of 10 to 100 µM.

With `O=c1[nH]c2ccc(S(=O)(=O)Nc3ccc(Cl)c4c(Cl)c[nH]c34)cc2o1` [Compound 21], at DCAF15/RBM39, the EC50 was in the range of 1 to 10 µM.

As for `Cn1c(=O)oc2cc(S(=O)(=O)Nc3ccc(Cl)c4c(Cl)c[nH]c34)ccc21` [Compound 22], on DCAF15/RBM39, the EC50 is no more than 1 µM. The IC50 at DCAF15 lay within 1 to 10 µM.

At DCAF15/RBM39, `O=C1NS(=O)(=O)c2ccc(S(=O)(=O)Nc3ccc(Cl)c4c(Cl)c[nH]c34)cc21` [Compound 23] yielded an EC50 of 1 to 10 µM. Further, the IC50 at DCAF15 lay within 1 to 10 µM.

`O=S(=O)(Nc1ccc(Cl)c2c(Cl)c[nH]c12)c1ccc2c(c1)CCCC2` [Compound 24]: the EC50 at DCAF15/RBM39 fell in the range of 1 to 10 µM. The compound further showed an IC50 on DCAF15 greater than 100 µM.

Compound `O=S(=O)(Nc1ccc(Cl)c2c(Cl)c[nH]c12)c1ccc2ccccc2c1F` [Compound 25] registered an EC50 at DCAF15/RBM39 of no more than 1 µM. The IC50 at DCAF15 lay in the range of 1 to 10 µM.

For `O=S(=O)(Nc1ccc(Cl)c2c(Cl)c[nH]c12)c1ccc2c(Cl)ccc(Cl)c2c1` [Compound 28], on DCAF15/RBM39, the EC50 lay in the range of 10 to 100 µM.

For `O=S(=O)(Nc1ccc(Cl)c2c(Cl)c[nH]c12)c1ccc2c(c1)CC[C@@H](C(F)F)O2` [Compound 29], on DCAF15/RBM39, the EC50 fell in the range of 1 to 10 µM. This compound also returned an IC50 on DCAF15 of 10 to 100 µM.

In turn, `O=C1CCOc2ccc(S(=O)(=O)Nc3ccc(Cl)c4c(Cl)c[nH]c34)cc21` [Compound 30] yielded an EC50 at DCAF15/RBM39 of 1 to 10 µM.

The compound `O=C1OCCc2ccc(S(=O)(=O)Nc3ccc(Cl)c4c(Cl)c[nH]c34)cc21` [Compound 31] had an EC50 on DCAF15/RBM39 of no more than 1 µM. Besides, at DCAF15, the IC50 was in the range of 1 to 10 µM.

The compound `O=C(N1CCc2ccc(S(=O)(=O)Nc3ccc(Cl)c4c(Cl)c[nH]c34)cc2C1)C(F)(F)F` [Compound 33] registered an EC50 at DCAF15/RBM39 of no more than 1 µM.

Compound `O=C1NCCc2ccc(S(=O)(=O)Nc3ccc(Cl)c4c(Cl)c[nH]c34)cc21` [Compound 34] had an EC50 on DCAF15/RBM39 of 1 to 10 µM. The compound further gave a half-maximal inhibitory concentration (IC50) at DCAF15 of 1 to 10 µM.

On to `O=C1CCc2cc(S(=O)(=O)Nc3ccc(Cl)c4c(Cl)c[nH]c34)c(F)cc2N1` [Compound 35], for which the EC50 at DCAF15/RBM39 fell in the range of 1 to 10 µM. The compound also returned an IC50 on DCAF15 of 1 to 10 µM.

Turning to `CC1(C)CC(=O)Nc2ccc(S(=O)(=O)Nc3ccc(Cl)c4c(Cl)c[nH]c34)cc21` [Compound 36], the EC50 on DCAF15/RBM39 was no more than 1 µM. Moreover, at DCAF15, the IC50 is 1 to 10 µM.

For `O=c1ccc2cc(S(=O)(=O)Nc3ccc(Cl)c4c(Cl)c[nH]c34)ccc2[nH]1` [Compound 37], the half-maximal effective concentration (EC50) on DCAF15/RBM39 is no more than 1 µM. The compound further had an IC50 at DCAF15 of 1 to 10 µM.

In the case of `O=S(=O)(Nc1ccc(Cl)c2c(Cl)c[nH]c12)c1cc(Br)c2c(c1)OCCO2` [Compound 38], the EC50 at DCAF15/RBM39 was in the range of 1 to 10 µM. The IC50 on DCAF15 lay within 1 to 10 µM.

As for `O=C1COc2ccc(S(=O)(=O)Nc3ccc(Cl)c4c(Cl)c[nH]c34)cc2N1` [Compound 39], the half-maximal effective concentration (EC50) on DCAF15/RBM39 is 1 to 10 µM.

With `O=C1COc2cc(S(=O)(=O)Nc3ccc(Cl)c4c(Cl)c[nH]c34)ccc2N1` [Compound 40], on DCAF15/RBM39, the EC50 was no more than 1 µM.

Consider `CN1Cc2cc(S(=O)(=O)Nc3ccc(Cl)c4c(Cl)c[nH]c34)ccc2OC1=O` [Compound 41], for which, on DCAF15/RBM39, the EC50 was no more than 1 µM. This compound also had an IC50 at DCAF15 of 1 to 10 µM.

For the compound `Cn1c(=O)c2cc(S(=O)(=O)Nc3ccc(Cl)c4c(Cl)c[nH]c34)ccc2n(C)c1=O` [Compound 43, N-(3,4-dichloro-1H-indol-7-yl)-1,3-dimethyl-2,4-dioxo-1,2,3,4-tetrahydroquinazoline-6-sulfonamide], the EC50 on DCAF15/RBM39 is no more than 1 µM.

In the case of `O=C1COc2cc(S(=O)(=O)Nc3ccc(Cl)c4c(Cl)c[nH]c34)cnc2N1` [Compound 45], the EC50 at DCAF15/RBM39 was no more than 1 µM. At DCAF15, the IC50 lay within 10 to 100 µM.

Take `CC(C)(C)OC(=O)N1CCCc2cc(S(=O)(=O)Nc3ccc(Cl)c4c(Cl)c[nH]c34)ccc2C1` [Compound 46]: on DCAF15/RBM39, the EC50 was 1 to 10 µM.

At DCAF15/RBM39, `CC(C)(C)OC(=O)N1CCCc2cc(S(=O)(=O)Nc3ccc(Cl)c4c(Cl)c[nH]c34)ccc2C1` [Compound 47] returned an EC50 of no more than 1 µM. Moreover, the IC50 on DCAF15 was in the range of 1 to 10 µM.

At DCAF15/RBM39, `O=C1NCCOc2ccc(S(=O)(=O)Nc3ccc(Cl)c4c(Cl)c[nH]c34)cc21` [Compound 48] came in with an EC50 of no more than 1 µM. The same compound yielded an IC50 on DCAF15 of 1 to 10 µM.

`O=C1CCSc2ccc(S(=O)(=O)Nc3ccc(Cl)c4c(Cl)c[nH]c34)cc2N1` [Compound 49]: the EC50 on DCAF15/RBM39 was no more than 1 µM. At DCAF15, this compound displayed an IC50 of 1 to 10 µM.
